Experimental data reported in US12673944B2, “Compounds having inhibitory activity against glucosylceramide synthase or pharmaceutically acceptable salt thereof, processes for preparing the same, and pharmaceutical compositions comprising the same” (YUHAN CORPORATION, priority 2019, dated 2026).

Key:
[1] = biological target: T1, glucosylceramide synthase (GCS) (Homo sapiens, UniProt Q16739); assay: GCS enzyme inhibition assay (A549 cell lysate, NBD C6-ceramide, HPLC fluorescence); assay type: biochemical; details: inhibitory activity against GCS, 37° C., 90 minutes
T1 construct: The obtained supernatant was used; host or cells: A549 cells (lysate supernatant after sonication)
T1 sequence (Q16739 1-394): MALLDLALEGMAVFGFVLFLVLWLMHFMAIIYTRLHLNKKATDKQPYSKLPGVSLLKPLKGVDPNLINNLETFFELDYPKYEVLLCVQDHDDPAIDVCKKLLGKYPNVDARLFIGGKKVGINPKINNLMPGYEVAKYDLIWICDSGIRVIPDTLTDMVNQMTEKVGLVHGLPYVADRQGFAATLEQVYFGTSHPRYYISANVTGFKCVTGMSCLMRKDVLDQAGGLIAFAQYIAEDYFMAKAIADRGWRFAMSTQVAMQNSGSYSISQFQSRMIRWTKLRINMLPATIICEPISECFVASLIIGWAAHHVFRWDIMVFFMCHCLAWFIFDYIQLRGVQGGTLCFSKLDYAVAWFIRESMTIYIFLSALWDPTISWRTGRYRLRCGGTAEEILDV
How it was run: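 A549 cell lysate (50 mM HEPES pH 7.3) served as GCS source; reactions ran 90 min at 37° C, were stopped with chloroform/methanol and lipids extracted. Activity taken as GlcCer/(Cer+GlcCer) peak area, normalised between DMSO and ibiglustat controls.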

[2] = system: GM1 production in Jurkat cells; assay: cells; assay type: cell-based; details: Homo sapiens, Jurkat, 72 h

Row | SMILES | IC50 [1] [nM] | IC50 [2] [nM]
1 | CC1(C)COc2cc(-c3cc(Cl)cc(C(F)(F)F)c3)ccc2C1NC(=O)O[C@@H]1CN2CCC1CC2 (stereo partly drawn) [Example 164, (S)-quinuclidin-3-yl (7-(3-chloro-5-(trifluoromethyl)phenyl)-3,3-dimethylchroman-4-yl)carbamate] | 1.59 | 3.22
2 | CC(C)Oc1ccc(F)c(-c2ccc3c(c2)OCC(C)(C)C3NC(=O)O[C@@H]2CN3CCC2CC3)c1 (stereo partly drawn) [Example 135, (S)-quinuclidin-3-yl (7-(2-fluoro-5-isopropoxyphenyl)-3,3-dimethylchroman-4-yl)carbamate] | 0.44 | 3.46
3 | CC(C)(C)OCc1ccc(-c2ccc3c(c2)OCC(C)(C)C3NC(=O)O[C@@H]2CN3CCC2CC3)cc1 (stereo partly drawn) [Example 141, (S)-quinuclidin-3-yl (7-(4-(tert-butoxymethyl)phenyl)-3,3-dimethylchroman-4-yl)carbamate] | 0.19 | 0.2
4 | CC(C)Cc1ccc(-c2ccc3c(c2)OCC(C)(C)C3NC(=O)O[C@@H]2CN3CCC2CC3)cc1 (stereo partly drawn) [Example 257, (S)-quinuclidin-3-yl (7-(4-isobutylphenyl)-3,3-dimethylchroman-4-yl)carbamate] | 0.36 | 0.7
5 | CN(C)c1cccc(-c2ccc3c(c2)OCCC3(C)NC(=O)O[C@@H]2CN3CCC2CC3)c1 (stereo partly drawn) [Example 303, (S)-quinuclidin-3-yl (7-(3-(dimethylamino)phenyl)-4-methylchroman-4-yl)carbamate] | 0.5 | 3.2
6 | O=C(NC1CCOc2ccc(-c3cccc(C(F)(F)F)c3)cc21)O[C@@H]1CN2CCC1CC2 (stereo partly drawn) [Example 92, (S)-quinuclidin-3-yl (6-(3-(trifluoromethyl)phenyl)chroman-4-yl)carbamate] | 29.6 | 495
7 | CC1(C)COc2cc(-c3ccc4ccccc4c3)ccc2C1NC(=O)O[C@@H]1CN2CCC1CC2 (stereo partly drawn) [Example 130, (S)-quinuclidin-3-yl (3,3-dimethyl-7-(naphthalen-2-yl)chroman-4-yl)carbamate] | 0.71 | 1.4
8 | CC1(C)COc2cc(-c3cc(C(F)(F)F)ccc3Cl)ccc2C1NC(=O)O[C@@H]1CN2CCC1CC2 (stereo partly drawn) [Example 139, (S)-quinuclidin-3-yl (7-(2-chloro-5-(trifluoromethyl)phenyl)-3,3-dimethylchroman-4-yl)carbamate] | 0.62 | 0.3
9 | COCCOc1ccccc1-c1ccc2c(c1)OCC(C)(C)C2NC(=O)O[C@@H]1CN2CCC1CC2 (stereo partly drawn) [Example 109, (S)-quinuclidin-3-yl (7-(2-(2-methoxyethoxy)phenyl)-3,3-dimethylchroman-4-yl)carbamate] | 2.14 | 2
10 | CC1(C)COc2cc(-c3ccccc3F)ccc2C1NC(=O)O[C@@H]1CN2CCC1CC2 (stereo partly drawn) [Example 156, (S)-quinuclidin-3-yl (7-(2-fluorophenyl)-3,3-dimethylchroman-4-yl)carbamate] | 0.29 | 0.27
11 | COc1cc(-c2ccc3c(c2)OCCC3NC(=O)O[C@@H]2CN3CCC2CC3)ccn1 (stereo partly drawn) [Example 68, (S)-quinuclidin-3-yl (7-(2-methoxypyridin-4-yl)chroman-4-yl)carbamate] | 3.65 | 28.3
12 | CC1(C)COc2cc(-c3cccc4cc[nH]c34)ccc2C1NC(=O)O[C@@H]1CN2CCC1CC2 (stereo partly drawn) [Example 173, (S)-quinuclidin-3-yl (7-(1H-indol-7-yl)-3,3-dimethylchroman-4-yl)carbamate] | 1.17 | 2.95
13 | O=C(NC1CCOc2cc(-c3cncc4ccccc34)ccc21)O[C@@H]1CN2CCC1CC2 (stereo partly drawn) [Example 53, (S)-quinuclidin-3-yl (7-(isoquinolin-4-yl)chroman-4-yl)carbamate] | 1.77 | 2.66
14 | O=C(NC1CCOc2cc(-c3ccc4ccncc4c3)ccc21)O[C@@H]1CN2CCC1CC2 (stereo partly drawn) [Example 57, (S)-quinuclidin-3-yl (7-(isoquinolin-7-yl)chroman-4-yl)carbamate] | 3.52 | 36.6
15 | CC1(NC(=O)O[C@@H]2CN3CCC2CC3)CCOc2cc(-c3cccc(Cl)c3)ccc21 (stereo partly drawn) [Example 297, (S)-quinuclidin-3-yl (7-(3-chlorophenyl)-4-methylchroman-4-yl)carbamate] | 0.8 | 5.6
16 | CC1(C)COc2cc(-c3cccc(C(F)(F)F)c3)ccc2C1NC(=O)O[C@@H]1CN2CCC1CC2 (stereo partly drawn) [Example 104, (S)-quinuclidin-3-yl (3,3-dimethyl-7-(3-(trifluoromethyl)phenyl)chroman-4-yl)carbamate] | 1 | 1.02

Row | SMILES | IC50 [1] [nM] | IC50 [2] [nM]
17 | CCc1ccc(-c2ccc3c(c2)OCC(C)(C)C3NC(=O)O[C@@H]2CN3CCC2CC3)cc1 (stereo partly drawn) [Example 273, (S)-quinuclidin-3-yl (7-(4-ethylphenyl)-3,3-dimethylchroman-4-yl)carbamate] | 0.46 | 2.9
18 | COc1ccc(-c2ccc3c(c2)OCCC3NC(=O)O[C@@H]2CN3CCC2CC3)cc1 (stereo partly drawn) [Example 19, (S)-quinuclidin-3-yl (7-(4-methoxyphenyl)chroman-4-yl)carbamate] | 8.32 | 30.5
19 | Cc1ccc(Cl)c(-c2ccc3c(c2)OCC(C)(C)C3NC(=O)O[C@@H]2CN3CCC2CC3)c1 (stereo partly drawn) [Example 224, (S)-quinuclidin-3-yl (7-(2-chloro-5-methylphenyl)-3,3-dimethylchroman-4-yl)carbamate] | 0.62 | 0.6
20 | CC1(C)COc2cc(-c3cccc(C(F)F)c3)ccc2C1NC(=O)O[C@@H]1CN2CCC1CC2 (stereo partly drawn) [Example 112, (S)-quinuclidin-3-yl (7-(3-(difluoromethyl)phenyl)-3,3-dimethylchroman-4-yl)carbamate] | 0.53 | 0.55
21 | CC1(NC(=O)O[C@@H]2CN3CCC2CC3)CCOc2cc(-c3cccc(C(F)(F)F)c3)ccc21 (stereo partly drawn) [Example 305, (S)-quinuclidin-3-yl (4-methyl-7-(3-(trifluoromethyl)phenyl)chroman-4-yl)carbamate] | 0.7 | 5.4
22 | Cc1cccc(-c2ccc3c(c2)OCC(C)(C)C3NC(=O)O[C@@H]2CN3CCC2CC3)c1 (stereo partly drawn) [Example 268, (S)-quinuclidin-3-yl (3,3-dimethyl-7-(m-tolyl)chroman-4-yl)carbamate] | 0.62 | 1.4
23 | COc1ccc(-c2cc3c(cc2F)C(NC(=O)O[C@@H]2CN4CCC2CC4)C(C)(C)CO3)cc1 (stereo partly drawn) [Example 336, (S)-quinuclidin-3-yl (6-fluoro-7-(4-methoxyphenyl)-3,3-dimethylchroman-4-yl)carbamate] | 0.27 | 3.5
24 | CC1(C)COc2cc(-c3cnc(C4CC4)nc3)ccc2C1NC(=O)O[C@@H]1CN2CCC1CC2 (stereo partly drawn) [Example 283, (S)-quinuclidin-3-yl (7-(2-cyclopropylpyrimidin-5-yl)-3,3-dimethylchroman-4-yl)carbamate] | 2.2 | 25.6
25 | CC1(C)COc2cc(-c3cc(Cl)ccc3Cl)ccc2C1NC(=O)O[C@@H]1CN2CCC1CC2 (stereo partly drawn) [Example 150, (S)-quinuclidin-3-yl (7-(2,5-dichlorophenyl)-3,3-dimethylchroman-4-yl)carbamate] | 0.72 | 0.4
26 | COc1cc2c(cc1-c1ccc(C(C)(C)C)cc1)OCC(C)(C)C2NC(=O)O[C@@H]1CN2CCC1CC2 (stereo partly drawn) [Example 364, (S)-quinuclidin-3-yl (7-(4-(tert-butyl)phenyl)-6-methoxy-3,3-dimethylchroman-4-yl)carbamate] | 0.43 | 2
27 | CC(C)(C)c1cccc(-c2ccc3c(c2)SCCC3NC(=O)O[C@@H]2CN3CCC2CC3)c1 (stereo partly drawn) [Example 322, (S)-quinuclidin-3-yl (7-(3-(tert-butyl)phenyl)thiochroman-4-yl)carbamate] | 1.78 | 5.88
28 | CC1(C)COc2cc(-c3ccccc3C(F)(F)F)ccc2C1NC(=O)O[C@@H]1CN2CCC1CC2 (stereo partly drawn) [Example 185, (S)-quinuclidin-3-yl (3,3-dimethyl-7-(2-(trifluoromethyl)phenyl)chroman-4-yl)carbamate] | 0.67 | 0.98
29 | O=C(NC1CCOc2cc(-c3ccc(OCC4CC4)nc3)ccc21)O[C@@H]1CN2CCC1CC2 (stereo partly drawn) [Example 81, (S)-quinuclidin-3-yl (7-(6-(cyclopropylmethoxy)pyridin-3-yl)chroman-4-yl)carbamate] | 0.94 | 14.8
30 | O=C(NC1CCOc2cc(-c3ccc(C4CCOCC4)cc3)ccc21)O[C@@H]1CN2CCC1CC2 (stereo partly drawn) [Example 73, (S)-quinuclidin-3-yl (7-(4-(tetrahydro-2H-pyran-4-yl)phenyl)chroman-4-yl)carbamate] | 1.47 | 28.2
31 | CCc1ccc(/C=C/c2ccc3c(c2)OCC(C)(C)C3NC(=O)O[C@@H]2CN3CCC2CC3)cc1 (stereo partly drawn) [Example 287, (S)-quinuclidin-3-yl (7-((E)-4-ethylstyryl)-3,3-dimethylchroman-4-yl)carbamate] | 0.79 | 1
32 | CC1(C)COc2cc(-c3cccc4ccccc34)ccc2C1NC(=O)O[C@@H]1CN2CCC1CC2 (stereo partly drawn) [Example 131, (S)-quinuclidin-3-yl (3,3-dimethyl-7-(naphthalen-1-yl)chroman-4-yl)carbamate] | 1.02 | 1.21
